The results in this text go back to patent publication US20240246942A1, “KINASE INHIBITORS FOR THE TREATMENT OF NEURODEGENERATIVE DISEASES” (priority 2020, published 2024).

Read-outs that look alike come from different tables or passages of the source.

Holding throughout (experiment): biochemical
Experiment [1] has as its target T1, panel of 374 wild-type kinases (Homo sapiens, UniProt P09769).
T1 construct: purchased Reaction Biology Corporation
To be noted: read-out: % Enzyme Activity (relative to DMSO controls), FGR.

Experiment [2] concerns the target T2, panel of 374 wild-type kinases (Homo sapiens, UniProt Q13873).
T2 construct: purchased Reaction Biology Corporation
T2 sequence (Q13873 27-1038): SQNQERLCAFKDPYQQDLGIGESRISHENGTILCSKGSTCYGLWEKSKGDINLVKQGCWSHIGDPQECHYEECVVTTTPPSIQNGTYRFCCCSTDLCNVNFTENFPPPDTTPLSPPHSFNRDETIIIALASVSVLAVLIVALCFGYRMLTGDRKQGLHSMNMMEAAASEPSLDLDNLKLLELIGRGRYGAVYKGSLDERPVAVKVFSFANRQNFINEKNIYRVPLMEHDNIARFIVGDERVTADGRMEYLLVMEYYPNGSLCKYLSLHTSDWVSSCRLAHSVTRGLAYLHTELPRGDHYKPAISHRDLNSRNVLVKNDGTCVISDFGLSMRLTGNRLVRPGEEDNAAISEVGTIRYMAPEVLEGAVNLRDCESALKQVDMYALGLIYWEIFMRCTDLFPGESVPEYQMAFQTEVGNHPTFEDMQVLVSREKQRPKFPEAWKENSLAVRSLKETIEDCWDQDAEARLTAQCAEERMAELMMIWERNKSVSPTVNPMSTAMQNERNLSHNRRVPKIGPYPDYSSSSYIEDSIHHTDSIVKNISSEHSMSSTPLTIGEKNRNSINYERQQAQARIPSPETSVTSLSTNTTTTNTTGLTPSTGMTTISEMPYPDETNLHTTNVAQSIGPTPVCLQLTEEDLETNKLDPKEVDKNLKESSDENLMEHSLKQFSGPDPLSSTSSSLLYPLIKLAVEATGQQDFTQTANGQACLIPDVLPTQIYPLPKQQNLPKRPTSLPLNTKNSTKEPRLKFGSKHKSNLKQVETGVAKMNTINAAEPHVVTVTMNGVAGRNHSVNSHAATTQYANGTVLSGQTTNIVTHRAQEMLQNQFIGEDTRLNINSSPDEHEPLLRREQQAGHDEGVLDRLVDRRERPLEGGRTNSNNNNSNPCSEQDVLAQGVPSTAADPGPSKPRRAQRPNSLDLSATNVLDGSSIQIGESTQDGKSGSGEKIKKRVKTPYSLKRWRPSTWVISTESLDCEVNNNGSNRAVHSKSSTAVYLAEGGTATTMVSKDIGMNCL
To be noted: read-out: % Enzyme Activity (relative to DMSO controls), BMPR2.

Experiment [3] addresses T3, panel of 374 wild-type kinases (Homo sapiens, UniProt Q16513).
T3 construct: purchased Reaction Biology Corporation

Experiment [4] deals with T4, panel of 374 wild-type kinases (Homo sapiens, UniProt Q09013).
T4 construct: purchased Reaction Biology Corporation
T4 sequence (Q09013 1-629): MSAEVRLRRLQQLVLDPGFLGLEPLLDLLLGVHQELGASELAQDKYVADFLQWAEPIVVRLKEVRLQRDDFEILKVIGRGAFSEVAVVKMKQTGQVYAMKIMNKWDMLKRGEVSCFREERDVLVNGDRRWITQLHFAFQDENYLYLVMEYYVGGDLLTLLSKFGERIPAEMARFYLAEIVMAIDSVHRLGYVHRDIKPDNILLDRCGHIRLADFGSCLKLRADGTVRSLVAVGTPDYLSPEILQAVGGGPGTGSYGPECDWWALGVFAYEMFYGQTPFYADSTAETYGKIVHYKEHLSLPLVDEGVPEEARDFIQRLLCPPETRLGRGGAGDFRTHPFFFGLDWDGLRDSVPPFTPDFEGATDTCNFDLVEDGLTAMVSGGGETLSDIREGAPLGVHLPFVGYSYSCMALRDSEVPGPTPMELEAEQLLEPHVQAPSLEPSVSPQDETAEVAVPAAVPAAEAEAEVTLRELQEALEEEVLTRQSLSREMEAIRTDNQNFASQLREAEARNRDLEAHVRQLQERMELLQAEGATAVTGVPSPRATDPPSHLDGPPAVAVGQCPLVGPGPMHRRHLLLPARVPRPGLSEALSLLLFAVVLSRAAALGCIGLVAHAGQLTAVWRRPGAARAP
The following applies: read-out: % Enzyme Activity (relative to DMSO controls), DMPK.

For experiment [5], the target named is T5, panel of 374 wild-type kinases (Homo sapiens, UniProt Q13164).
T5 construct: purchased Reaction Biology Corporation
T5 sequence (Q13164 whole entry): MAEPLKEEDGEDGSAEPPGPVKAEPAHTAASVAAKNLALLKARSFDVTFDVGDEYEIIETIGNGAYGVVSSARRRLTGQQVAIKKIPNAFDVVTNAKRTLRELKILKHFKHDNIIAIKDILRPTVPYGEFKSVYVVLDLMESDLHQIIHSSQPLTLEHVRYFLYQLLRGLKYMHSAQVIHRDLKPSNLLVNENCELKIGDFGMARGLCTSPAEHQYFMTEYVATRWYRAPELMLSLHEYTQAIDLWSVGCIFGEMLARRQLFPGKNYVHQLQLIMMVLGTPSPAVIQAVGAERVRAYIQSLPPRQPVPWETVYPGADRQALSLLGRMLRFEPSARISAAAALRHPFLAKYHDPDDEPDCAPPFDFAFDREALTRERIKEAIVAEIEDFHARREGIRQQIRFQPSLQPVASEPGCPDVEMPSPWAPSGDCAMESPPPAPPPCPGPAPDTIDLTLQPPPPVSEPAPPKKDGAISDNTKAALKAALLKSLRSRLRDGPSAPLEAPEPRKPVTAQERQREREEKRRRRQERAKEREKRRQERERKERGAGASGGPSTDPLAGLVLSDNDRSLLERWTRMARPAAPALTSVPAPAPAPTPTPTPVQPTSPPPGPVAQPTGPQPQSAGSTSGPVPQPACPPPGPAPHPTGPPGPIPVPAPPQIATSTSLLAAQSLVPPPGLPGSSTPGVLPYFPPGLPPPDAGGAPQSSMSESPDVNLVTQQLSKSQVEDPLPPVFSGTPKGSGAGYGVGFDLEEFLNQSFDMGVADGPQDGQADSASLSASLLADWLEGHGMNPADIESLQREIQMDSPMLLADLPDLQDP
The following applies: read-out: % Enzyme Activity (relative to DMSO controls), ERK5/MAPK7.

The target in experiment [6] is T6, panel of 374 wild-type kinases (Homo sapiens, UniProt O15530).
T6 construct: purchased Reaction Biology Corporation
T6 sequence (O15530 1-556): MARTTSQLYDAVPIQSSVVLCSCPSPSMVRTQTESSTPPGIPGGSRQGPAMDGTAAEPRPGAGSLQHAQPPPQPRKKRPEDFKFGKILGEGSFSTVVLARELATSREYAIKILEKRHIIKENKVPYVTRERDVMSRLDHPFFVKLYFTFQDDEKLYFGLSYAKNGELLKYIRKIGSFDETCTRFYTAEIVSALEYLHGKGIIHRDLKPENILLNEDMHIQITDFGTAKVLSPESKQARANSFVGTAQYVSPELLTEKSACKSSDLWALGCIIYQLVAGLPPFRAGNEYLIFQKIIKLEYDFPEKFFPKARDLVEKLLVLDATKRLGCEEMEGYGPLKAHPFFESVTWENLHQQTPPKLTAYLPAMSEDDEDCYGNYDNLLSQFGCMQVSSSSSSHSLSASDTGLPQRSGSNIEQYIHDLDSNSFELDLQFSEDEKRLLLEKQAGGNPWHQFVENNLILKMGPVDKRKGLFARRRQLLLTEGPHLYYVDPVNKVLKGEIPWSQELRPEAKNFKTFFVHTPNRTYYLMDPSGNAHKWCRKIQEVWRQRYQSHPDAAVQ
To be noted: read-out: % Enzyme Activity (relative to DMSO controls), kinase PDK1/PDPK1.

For experiment [7], the target named is T7, panel of 374 wild-type kinases (Homo sapiens, UniProt Q9H422).
T7 construct: purchased Reaction Biology Corporation
T7 sequence (Q9H422 whole entry): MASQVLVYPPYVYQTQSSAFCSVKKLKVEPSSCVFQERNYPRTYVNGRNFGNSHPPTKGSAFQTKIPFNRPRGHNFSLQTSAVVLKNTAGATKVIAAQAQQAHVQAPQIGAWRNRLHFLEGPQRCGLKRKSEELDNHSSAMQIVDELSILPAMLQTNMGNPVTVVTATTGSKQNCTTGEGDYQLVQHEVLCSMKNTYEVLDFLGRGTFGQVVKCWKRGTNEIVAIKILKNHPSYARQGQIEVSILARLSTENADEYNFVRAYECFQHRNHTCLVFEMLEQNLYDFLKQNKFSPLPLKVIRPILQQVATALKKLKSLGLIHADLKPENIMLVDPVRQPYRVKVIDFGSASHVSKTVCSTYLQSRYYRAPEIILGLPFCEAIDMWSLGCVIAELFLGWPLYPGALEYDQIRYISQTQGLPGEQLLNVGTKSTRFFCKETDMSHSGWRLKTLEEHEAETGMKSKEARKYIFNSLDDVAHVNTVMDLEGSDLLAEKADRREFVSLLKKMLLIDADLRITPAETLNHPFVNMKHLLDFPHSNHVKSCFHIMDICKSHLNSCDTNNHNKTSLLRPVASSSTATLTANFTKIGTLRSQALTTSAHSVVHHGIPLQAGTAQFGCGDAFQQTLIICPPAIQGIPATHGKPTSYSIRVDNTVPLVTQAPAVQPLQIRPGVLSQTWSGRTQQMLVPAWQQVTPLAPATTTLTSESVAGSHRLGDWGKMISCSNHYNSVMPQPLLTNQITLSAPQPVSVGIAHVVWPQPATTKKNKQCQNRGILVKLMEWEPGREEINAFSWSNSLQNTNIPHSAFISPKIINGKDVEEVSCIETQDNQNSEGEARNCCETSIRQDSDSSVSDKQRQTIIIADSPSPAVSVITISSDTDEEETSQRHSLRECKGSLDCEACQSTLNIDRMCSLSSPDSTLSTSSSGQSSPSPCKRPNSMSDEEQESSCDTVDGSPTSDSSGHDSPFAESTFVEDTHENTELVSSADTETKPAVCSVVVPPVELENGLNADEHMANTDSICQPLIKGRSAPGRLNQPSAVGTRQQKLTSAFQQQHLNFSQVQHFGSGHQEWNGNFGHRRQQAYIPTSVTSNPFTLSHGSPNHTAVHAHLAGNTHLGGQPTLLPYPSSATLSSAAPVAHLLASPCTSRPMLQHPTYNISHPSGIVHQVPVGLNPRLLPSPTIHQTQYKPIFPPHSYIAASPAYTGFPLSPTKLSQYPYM
To be noted: read-out: % Enzyme Activity (relative to DMSO controls), HIPK3.

Experiment [8] deals with T8, panel of 374 wild-type kinases (Homo sapiens, UniProt Q14012).
T8 construct: purchased Reaction Biology Corporation
T8 sequence (Q14012 whole entry): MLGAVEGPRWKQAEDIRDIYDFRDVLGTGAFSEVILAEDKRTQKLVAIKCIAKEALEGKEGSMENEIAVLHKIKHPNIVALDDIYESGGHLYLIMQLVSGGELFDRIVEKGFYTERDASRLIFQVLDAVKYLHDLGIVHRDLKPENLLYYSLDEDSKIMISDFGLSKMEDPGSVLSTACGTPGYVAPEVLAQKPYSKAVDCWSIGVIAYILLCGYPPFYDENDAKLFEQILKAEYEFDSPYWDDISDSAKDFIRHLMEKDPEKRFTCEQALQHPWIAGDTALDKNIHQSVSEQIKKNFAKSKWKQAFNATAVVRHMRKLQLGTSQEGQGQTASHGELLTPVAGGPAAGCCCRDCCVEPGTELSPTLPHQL
The following applies: read-out: % Enzyme Activity (relative to DMSO controls), CAMK1a.

Experiment [9] addresses T9, panel of 374 wild-type kinases (Homo sapiens, UniProt O96013).
T9 construct: purchased Reaction Biology Corporation
To be noted: read-out: % Enzyme Activity (relative to DMSO controls), kinase PAK4.

T3 sequence (Q16513 whole entry): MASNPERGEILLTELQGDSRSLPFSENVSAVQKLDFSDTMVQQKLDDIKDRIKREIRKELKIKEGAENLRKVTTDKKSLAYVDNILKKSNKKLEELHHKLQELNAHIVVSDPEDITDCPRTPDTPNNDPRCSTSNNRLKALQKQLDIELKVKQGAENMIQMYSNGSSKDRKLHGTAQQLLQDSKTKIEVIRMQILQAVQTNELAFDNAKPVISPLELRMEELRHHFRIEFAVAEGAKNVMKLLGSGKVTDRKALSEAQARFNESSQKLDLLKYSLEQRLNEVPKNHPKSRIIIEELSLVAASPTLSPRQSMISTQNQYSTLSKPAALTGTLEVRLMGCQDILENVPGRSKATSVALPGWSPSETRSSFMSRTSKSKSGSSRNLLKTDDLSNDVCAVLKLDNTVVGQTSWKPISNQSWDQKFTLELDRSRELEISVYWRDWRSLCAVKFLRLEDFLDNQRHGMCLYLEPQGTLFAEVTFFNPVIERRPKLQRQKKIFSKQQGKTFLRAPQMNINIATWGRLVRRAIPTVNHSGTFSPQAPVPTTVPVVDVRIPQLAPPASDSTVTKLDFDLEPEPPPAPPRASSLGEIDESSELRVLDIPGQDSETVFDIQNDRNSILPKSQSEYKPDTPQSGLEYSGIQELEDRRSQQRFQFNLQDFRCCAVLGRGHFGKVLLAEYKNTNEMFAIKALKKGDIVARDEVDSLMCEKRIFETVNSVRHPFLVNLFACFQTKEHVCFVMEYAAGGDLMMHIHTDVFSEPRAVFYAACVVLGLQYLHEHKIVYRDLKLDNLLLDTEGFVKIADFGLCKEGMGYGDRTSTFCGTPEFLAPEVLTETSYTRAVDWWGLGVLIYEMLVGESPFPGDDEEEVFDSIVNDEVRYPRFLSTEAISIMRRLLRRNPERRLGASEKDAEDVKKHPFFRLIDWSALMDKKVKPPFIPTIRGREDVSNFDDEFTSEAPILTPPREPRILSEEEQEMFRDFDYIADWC
T1 sequence (P09769 whole entry): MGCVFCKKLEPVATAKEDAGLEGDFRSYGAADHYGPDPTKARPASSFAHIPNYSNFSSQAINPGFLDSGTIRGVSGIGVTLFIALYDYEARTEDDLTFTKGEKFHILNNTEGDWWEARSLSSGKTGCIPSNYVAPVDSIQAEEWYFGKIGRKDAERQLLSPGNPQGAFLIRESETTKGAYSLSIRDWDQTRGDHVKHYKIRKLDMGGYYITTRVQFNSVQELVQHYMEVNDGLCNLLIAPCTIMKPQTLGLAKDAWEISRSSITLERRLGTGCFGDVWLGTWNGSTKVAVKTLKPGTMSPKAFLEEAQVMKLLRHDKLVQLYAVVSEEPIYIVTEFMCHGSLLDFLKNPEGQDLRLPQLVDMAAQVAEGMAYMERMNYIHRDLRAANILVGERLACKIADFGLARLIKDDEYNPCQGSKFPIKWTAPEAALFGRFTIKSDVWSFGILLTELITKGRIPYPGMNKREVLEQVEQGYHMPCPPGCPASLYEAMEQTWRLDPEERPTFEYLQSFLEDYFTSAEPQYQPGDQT
T9 sequence (O96013 whole entry): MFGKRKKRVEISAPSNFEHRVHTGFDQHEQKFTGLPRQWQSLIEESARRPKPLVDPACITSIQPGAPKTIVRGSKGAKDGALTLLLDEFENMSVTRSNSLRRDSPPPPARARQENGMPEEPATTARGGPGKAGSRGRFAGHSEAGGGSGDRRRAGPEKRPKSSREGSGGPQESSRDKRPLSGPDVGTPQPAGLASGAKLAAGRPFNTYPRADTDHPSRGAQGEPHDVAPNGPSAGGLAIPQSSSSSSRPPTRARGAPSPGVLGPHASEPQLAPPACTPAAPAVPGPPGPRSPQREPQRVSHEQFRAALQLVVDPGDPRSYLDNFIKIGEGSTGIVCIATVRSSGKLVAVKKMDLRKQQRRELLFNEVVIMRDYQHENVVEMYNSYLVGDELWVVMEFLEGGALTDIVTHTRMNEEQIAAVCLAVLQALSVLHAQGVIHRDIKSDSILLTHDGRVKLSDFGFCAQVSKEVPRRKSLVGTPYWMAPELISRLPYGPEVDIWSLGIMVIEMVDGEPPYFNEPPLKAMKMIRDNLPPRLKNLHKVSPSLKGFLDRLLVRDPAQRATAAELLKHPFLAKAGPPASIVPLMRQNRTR

For the compound `O=C(Nc1cnn(-c2csc(C(=O)NC3COC3)c2)c1)Nc1ccccc1Cl` [Compound 17, 4-(4-(3-(2-chlorophenyl)ureido)-1H-pyrazol-1-yl)-N-(oxetan-3-yl)thiophene-2-carboxamide], the remaining activity at 5 µM in [1] was 90%; in experiment [2] it was 110%; in experiment [3] (read-out: % Enzyme Activity (relative to DMSO controls), kinase PKN2/PRK2), 112%; in experiment [4], 102%; in experiment [5], 119%; in experiment [6], 101%. Moreover, the remaining activity at 5 µM turned out to be 97.6% in experiment [7], 87.1% in experiment [8] and 98.9% in experiment [9].
In the case of `O=C(Nc1cnn(-c2csc(C(=O)NC3COC3)c2)c1)Nc1c(F)cccc1Cl` [Compound 25, 4-(4-(3-(2-chloro-6-fluorophenyl)ureido)-1H-pyrazol-1-yl)-N-(oxetan-3-yl)thiophene-2-carboxamide], the remaining activity at 5 µM in experiment [1] amounted to 95.5%; in [2], 77.2%; in experiment [3] (kinase PKN2/PRK2, read-out: % Enzyme Activity (relative to DMSO controls)), 105%; in [4] it was 110%; in experiment [5] it was 75.9%; in experiment [6] it was 99.6%. Besides, the remaining activity at 5 µM in experiment [7] was found to be 98.8%; in experiment [8], 98%; in [9] it was 107%.
With `Cc1sc(C(=O)NC2COC2)cc1-n1cc(NC(=O)Nc2c(F)cccc2Cl)cn1` [Compound 27, 4-(4-(3-(2-chloro-6-fluorophenyl)ureido)-1H-pyrazol-1-yl)-5-methyl-N-(oxetan-3-yl)thiophene-2-carboxamide], the remaining activity at 10 µM in experiment [1] (10 uM) was 80.2%; in experiment [2] (10 uM), 84.5%; in [3] (read-out: % Enzyme Activity (relative to DMSO controls), kinase PKN2/PRK2, 10 uM), 87.1%; in experiment [4] (10 uM), 95.2%; in experiment [5] (10 uM), 95.7%; in experiment [6] (10 uM) it was 99.2%. Also, the remaining activity at 10 µM in experiment [7] (10 uM) is 88.5%; in experiment [8] (10 uM) it was 115%; in experiment [9] (10 uM), 106%.
